Results published in publication PMC11224111, “Optimizing the pharmacokinetics of an ^211At-labeled RGD peptide with an albumin-binding moiety via the administration of an albumin-binding inhibitor” (European Journal of Nuclear Medicine and Molecular Imaging, 2024).
Read-outs that look alike come from different tables or passages of the source. Marks after values point to notes of the source that are not given here.

Columns and labels:
[1] = Biodistribution of [^211At]1 and [^125I]2 in normal mice with ibuprofen or IPBA as albumin-binding inhibitor; conditions: inhibitor at 1 h postinjection, 4 h postinjection of radiotracer
Procedure: To evaluate the effects of albumin-binding inhibitors in normal mice, [^211At]1 (37 kBq) and [^125I]2 (37 kBq) were intravenously coadministered. […] The total blood albumin (1.1 µmol) in normal mice was calculated from the albumin concentration (3.0 g/dL ≈ 455 µM) in blood, which was informed from Japan SLC, Inc., total blood volume (2.5 mL) as 8% of body weight, and the molecular weight of albumin as 66,000 g/mol. […]
Table S1. Biodistribution of radioactivity 4 h after administration of [^211At]1 and [^125I]2 in normal mice.

[2] = system: U-87 MG tumor-bearing mice; set-up: method as in PMID 37819452; conditions: 24-h postinjection, without IPBA; cited from earlier work
[3] = cited from earlier work
[4] = Biodistribution of [^125I]2 and [^67Ga]3 in normal mice with IPBA; assay type: in vivo; conditions: for tissue uptake at 4 h / tissue uptake dose at 4 h: male, ddY, iv, total radioactivity
Procedure: To evaluate the effects of inhibitors in normal mice, [^125I]2 (37 kBq) and [^67Ga]3 (37 kBq) were intravenously coadministered into 6 weeks male ddY mice (29-36 g, Japan SLC, Inc., Hamamatsu, Japan). At 1 h postinjection of radiotracers, sodium 4-(4-iodophenyl)butanoate (IPBA) at 2 (680 µg, 2.2 µmol) or 5 (1.7 mg, 5.5 µmol) molar equivalent of blood albumin was administered. Mice were sacrificed at 4 h post-injection of radiotracers.
Table S2. […] IPBA as an inhibitor was administered at 1 h postinjection of [^125I]2 and [^67Ga]3.

[5] = normal mice, 4 h after administration, without IPBA
[6] = normal mice, 4 h after administration of [^125I]2 and [^67Ga]3, IPBA 2 eq at 1 h postinjection
[7] = normal mice, 4 h after administration of [^125I]2 and [^67Ga]3, IPBA 5 eq at 1 h postinjection

## O=C([O-])CCCc1ccc(I)cc1.[Na+] [IPBA, sodium 4-(4-iodophenyl)butanoate, reference compound]
[1]
  Effect of inhibitor on blood radioactivity of [^211At]1: decreased in a dose-dependent manner

## N=C(N)NCCC[C@@H]1NC(=O)[C@H](CCCCNC(=O)[C@H](CCCCN)NC(=O)CN2CCN(CC(=O)O)CCN(CC(=O)O)CCN(CC(=O)O)CC2)NC(=O)[C@@H](Cc2ccccc2)NC(=O)[C@H](CC(=O)O)NC(=O)CNC1=O [[^67Ga]3, [^67Ga]Ga-DOTA-K-c(RGDfK), metal not drawn]
[2]
  Tumor accumulation: 1.84 ± 0.09 %IA/g
[3]; mouse, in vivo
  Radioactivity, L. intestine: 1.88 (0.65) % injected activity per gram
  Radioactivity, S. intestine: 1.16 (0.15) ^* % injected activity per gram
[3]; [5]
  Radioactivity, Blood: 0.09 (0.05) ^*** % injected activity per gram
  Radioactivity, Bone: 0.83 (0.05) ^* % injected activity per gram
  Radioactivity, Brain: 0.05 (0.00) ^*** % injected activity per gram
  Radioactivity, Heart: 0.26 (0.04) ^*** % injected activity per gram
  Radioactivity, Kidney: 6.61 (0.81) ^* % injected activity per gram
  Radioactivity, Liver: 1.15 (0.07) ^** % injected activity per gram
  Radioactivity, Lung: 0.50 (0.04) ^*** % injected activity per gram
  Radioactivity, Muscle: 0.19 (0.02)^ *** % injected activity per gram
  Radioactivity, Neck: 0.02 (0.00)^ ** % injected activity
  Radioactivity, Pancreas: 0.40 (0.03)^ *** % injected activity per gram
  Radioactivity, Spleen: 0.64 (0.12) ^*** % injected activity per gram
  Radioactivity, Stomach: 0.44 (0.04)^ * % injected activity
[4]; mouse, heart, normal mice, 4 h after administration of [^125I]2 and [^67Ga]3, IPBA 5 eq at 1 h postinjection, read-out: Radioactivity, Heart
  tissue uptake at 4 h: 0.29 %ID/g
[4]; mouse, in vivo, Radioactivity, L. intestine
  tissue uptake at 4 h: 3.07 %ID/g
[4]; mouse, in vivo, Radioactivity, S. intestine
  tissue uptake at 4 h: 1.05 %ID/g
[4]; mouse, kidney, normal mice, 4 h after administration of [^125I]2 and [^67Ga]3, IPBA 5 eq at 1 h postinjection, read-out: Radioactivity, Kidney
  tissue uptake at 4 h: 8.04 %ID/g
[4]; mouse, liver, normal mice, 4 h after administration of [^125I]2 and [^67Ga]3, IPBA 5 eq at 1 h postinjection, read-out: Radioactivity, Liver
  tissue uptake at 4 h: 1.54 %ID/g
[4]; mouse, neck, normal mice, 4 h after administration of [^125I]2 and [^67Ga]3, IPBA 2 eq at 1 h postinjection, read-out: Radioactivity, Neck
  tissue uptake dose at 4 h: 0.01 %ID
[4]; mouse, neck, normal mice, 4 h after administration of [^125I]2 and [^67Ga]3, IPBA 5 eq at 1 h postinjection, read-out: Radioactivity, Neck
  tissue uptake dose at 4 h: 0.01 %ID
[4]; mouse, stomach, normal mice, 4 h after administration of [^125I]2 and [^67Ga]3, IPBA 2 eq at 1 h postinjection, read-out: Radioactivity, Stomach
  tissue uptake dose at 4 h: 0.48 %ID
[4]; mouse, stomach, normal mice, 4 h after administration of [^125I]2 and [^67Ga]3, IPBA 5 eq at 1 h postinjection, read-out: Radioactivity, Stomach
  tissue uptake dose at 4 h: 0.59 %ID
[4]; mouse, in vivo
  Radioactivity, L. intestine: 4.88 (1.50) ^a % injected activity per gram
  Radioactivity, S. intestine: 1.76 (0.40) ^*,^ b % injected activity per gram
[4]; [6]
  Radioactivity, Blood: 0.03 (0.01) ^***,^ a % injected activity per gram
  Radioactivity, Bone: 0.55 (0.08) ^**,^ a % injected activity per gram
  Radioactivity, Brain: 0.04 (0.01) ^** % injected activity per gram
  Radioactivity, Heart: 0.23 (0.03) ^***,^ a % injected activity per gram
  Radioactivity, Kidney: 6.67 (1.04) ^* % injected activity per gram
  Radioactivity, Liver: 1.18 (0.14) ^*** % injected activity per gram
  Radioactivity, Lung: 0.49 (0.05) ^***,^ a % injected activity per gram
  Radioactivity, Muscle: 0.16 (0.02) ^***,^ a % injected activity per gram
  Radioactivity, Pancreas: 0.33 (0.01) ^*** % injected activity per gram
  Radioactivity, Spleen: 0.64 (0.16) ^*** % injected activity per gram
[4]; [7]
  Radioactivity, Blood: 0.03 (0.00) ^*,^ a % injected activity per gram
  Radioactivity, Bone: 0.70 (0.12) ^** % injected activity per gram
  Radioactivity, Brain: 0.05 (0.02) ^** % injected activity per gram
  Radioactivity, Lung: 0.55 (0.11) ^*,^ a % injected activity per gram
  Radioactivity, Muscle: 0.23 (0.04) ^*,^ b % injected activity per gram
  Radioactivity, Pancreas: 0.47 (0.13) ^** % injected activity per gram
  Radioactivity, Spleen: 0.90 (0.28) ^* % injected activity per gram
[4]; normal mice, IPBA 2 or 5 eq at 1 h postinjection
  Change of biodistribution by IPBA administration: did not change biodistribution
